Assay results published in patent US9527867B2, “Antibacterial biaromatic derivatives” (Actelion Pharmaceuticals Ltd., priority 2013, dated 2016).
Converted amounts (≈) assume the structure as drawn.

Legend:
Assay in all cases: Bacterial growth minimal inhibitory concentration (broth microdilution, CLSI M7-A7)
Format in all cases: cell-based
[1] = tested on: Moraxella catarrhalis A894; conditions: Moraxella catarrhalis, A894, cation-adjusted Mueller-Hinton Broth, quinolone-sensitive strain
Procedure, shortened: (§1)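 Testing used quinolone-resistant, multiply resistant isolates (S. aureus A798, A. baumannii T6474) plus quinolone-sensitive M. catarrhalis A894 and methicillin-sensitive S. aureus ATCC29213. MICs, in mg/L, came from CLSI M7-A7 microdilution in cation-adjusted Mueller-Hinton broth.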

[2] = tested on: Enterococcus faecium A949; conditions: Enterococcus faecium, A949, cation-adjusted Mueller-Hinton Broth, multiply-resistant strain (in particular quinolone-resistant), read-out: MIC for E. faecium A949
Procedure, shortened: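 Broth microdilution after CLSI M7-A7 in cation-adjusted Mueller-Hinton medium gave MIC values in mg/L.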

[3] = tested on: Acinetobacter baumannii T6474; conditions: Acinetobacter baumannii, T6474, cation-adjusted Mueller-Hinton Broth, multiply-resistant strain (in particular quinolone-resistant)
Procedure, shortened: as §1

[4] = tested on: Staphylococcus aureus A798; conditions: Staphylococcus aureus, A798, cation-adjusted Mueller-Hinton Broth, multiply-resistant strain (in particular quinolone-resistant), read-out: MIC for S. aureus A798
Procedure, shortened: as §1

[5] = tested on: Staphylococcus aureus ATCC29213; conditions: Staphylococcus aureus, ATCC29213, cation-adjusted Mueller-Hinton Broth, methicillin-sensitive and quinolone-sensitive strain, read-out: MIC for S. aureus ATCC29213
Procedure, shortened: as §1

Structure (SMILES) | MIC [1] | MIC [2] | MIC [3] | MIC [4] | MIC [5]
O=C1COc2ccc(N3C[C@H](CCNCc4cccc(-c5cccc(OCCCCO)c5)c4)OC3=O)nc2N1 [Example 67, 6-[(S)-5-(2-{[3′-(4-hydroxy-butoxy)-biphenyl-3-ylmethyl]-amino}-ethyl)-2-oxo-oxazolidin-3-yl]-4H-pyrido[3,2-b][1,4]oxazin-3-one] | 0.063 µg/mL (≈ 0.118 µM) | 8 µg/mL (≈ 15 µM) | 2 µg/mL (≈ 3.76 µM) | 0.5 µg/mL (≈ 0.939 µM) | 1 µg/mL (≈ 1.88 µM)
COc1ccc(C#N)c(-c2cccc(CNCC[C@H]3CN(c4ccc5c(n4)NC(=O)CO5)C(=O)O3)c2)c1 [Example 42, 5-methoxy-3′-({2-[(S)-2-oxo-3-(3-oxo-3,4-dihydro-2H-pyrido[3,2-b][1,4]oxazin-6-yl)-oxazolidin-5-yl]-ethylamino}-methyl)-biphenyl-2-carbonitrile] | ≤ 0.016 µg/mL | 1 µg/mL (≈ 2 µM) | 0.5 µg/mL (≈ 1 µM) | 0.125 µg/mL (≈ 0.25 µM) | 0.063 µg/mL (≈ 0.126 µM)
COc1cccc(-c2cncc(CNCC[C@H]3CN(c4ccc5c(n4)NC(=O)CO5)C(=O)O3)n2)c1 [Example 104, 6-[(S)-5-(2-{[6-(3-methoxy-phenyl)-pyrazin-2-ylmethyl]-amino}-ethyl)-2-oxo-oxazolidin-3-yl]-4H-pyrido[3,2-b][1,4]oxazin-3-one] | 0.031 µg/mL (≈ 0.0651 µM) | 2 µg/mL (≈ 4.2 µM) | 0.5 µg/mL (≈ 1.05 µM) | 0.25 µg/mL (≈ 0.525 µM) | 0.25 µg/mL (≈ 0.525 µM)
COc1cc(-c2cccc(CNCC[C@H]3CN(c4ccc5c(n4)NC(=O)CO5)C(=O)O3)c2)cnn1 [Example 59, 6-((S)-5-{2-[3-(6-methoxy-pyridazin-4-yl)-benzylamino]-ethyl}-2-oxo-oxazolidin-3-yl)-4H-pyrido[3,2-b][1,4]oxazin-3-one] | 0.125 µg/mL (≈ 0.262 µM) | > 8 µg/mL | 2 µg/mL (≈ 4.2 µM) | 4 µg/mL (≈ 8.39 µM) | 2 µg/mL (≈ 4.2 µM)
COc1cccc(-c2cccc(CNCC[C@@H]3CN(c4ccc5c(c4)NC(=O)CS5)C(=O)O3)c2F)c1 [Example 12, 6-((R)-5-{2-[(2-fluoro-3′-methoxy-biphenyl-3-ylmethyl)-amino]-ethyl}-2-oxo-oxazolidin-3-yl)-4H-benzo[1,4]thiazin-3-one] | 0.063 µg/mL (≈ 0.124 µM) | 2 µg/mL (≈ 3.94 µM) | 2 µg/mL (≈ 3.94 µM) | 0.5 µg/mL (≈ 0.985 µM) | 0.5 µg/mL (≈ 0.985 µM)
COc1cccc(-c2cccc(CNCC[C@@H]3CN(c4ccc5c(c4)NC(=O)CS5)C(=O)O3)n2)c1 [Example 20, 6-[(R)-5-(2-{[6-(3-methoxy-phenyl)-pyridin-2-ylmethyl]-amino}-ethyl)-2-oxo-oxazolidin-3-yl]-4H-benzo[1,4]thiazin-3-one] | 0.063 µg/mL (≈ 0.128 µM) | 1 µg/mL (≈ 2.04 µM) | 0.5 µg/mL (≈ 1.02 µM) | 0.25 µg/mL (≈ 0.51 µM) | 0.125 µg/mL (≈ 0.255 µM)
N#Cc1cccc(-c2cccc(CNCCc3cn(-c4ccc5c(n4)NC(=O)CO5)c(=O)o3)c2)c1 [Example 36, 3′-({2-[2-oxo-3-(3-oxo-3,4-dihydro-2H-pyrido[3,2-b][1,4]oxazin-6-yl)-2,3-dihydro-oxazol-5-yl]-ethylamino}-methyl)-biphenyl-3-carbonitrile] | ≤ 0.016 µg/mL | 0.5 µg/mL (≈ 1.07 µM) | 0.063 µg/mL (≈ 0.135 µM) | 0.063 µg/mL (≈ 0.135 µM) | 0.063 µg/mL (≈ 0.135 µM)
COc1cncc(-c2cccc(CNCC[C@H]3CN(c4ccc5c(n4)NC(=O)CO5)C(=O)O3)c2)n1 [Example 91, 6-((S)-5-{2-[3-(6-methoxy-pyrazin-2-yl)-benzylamino]-ethyl}-2-oxo-oxazolidin-3-yl)-4H-pyrido[3,2-b][1,4]oxazin-3-one] | ≤ 0.016 µg/mL | 2 µg/mL (≈ 4.2 µM) | 0.063 µg/mL (≈ 0.132 µM) | 0.031 µg/mL (≈ 0.0651 µM) | 0.031 µg/mL (≈ 0.0651 µM)

Second part, the compound after the results:

MIC [1] | MIC [2] | MIC [3] | MIC [4] | MIC [5] | Structure (SMILES)
≤ 0.016 µg/mL | 0.5 µg/mL (≈ 0.97 µM) | 0.25 µg/mL (≈ 0.485 µM) | ≤ 0.016 µg/mL | ≤ 0.016 µg/mL | COc1cc(C#N)cc(-c2cccc(CNCC[C@@H]3CN(c4ccc5c(c4)NC(=O)CS5)C(=O)O3)c2)n1 [Example 2, 2-methoxy-6-[3-({2-[(R)-2-oxo-3-(3-oxo-3,4-dihydro-2H-benzo[1,4]thiazin-6-yl)-oxazolidin-5-yl]-ethylamino}-methyl)-phenyl]-isonicotinonitrile]
≤ 0.016 µg/mL | 1 µg/mL (≈ 2.06 µM) | 0.125 µg/mL (≈ 0.258 µM) | 0.031 µg/mL (≈ 0.064 µM) | 0.031 µg/mL (≈ 0.064 µM) | N#Cc1cccc(-c2cccc(CNCCc3cn(-c4ccc5c(n4)NC(=O)CO5)c(=O)o3)c2O)n1 [Example 96, 6-[2-hydroxy-3-({2-[2-oxo-3-(3-oxo-3,4-dihydro-2H-pyrido[3,2-b][1,4]oxazin-6-yl)-2,3-dihydro-oxazol-5-yl]-ethylamino}-methyl)-phenyl]-pyridine-2-carbonitrile]
≤ 0.016 µg/mL | 2 µg/mL (≈ 4.12 µM) | 0.5 µg/mL (≈ 1.03 µM) | 0.5 µg/mL (≈ 1.03 µM) | 0.25 µg/mL (≈ 0.515 µM) | N#Cc1cccc(-c2cccc(CNCCc3nn(-c4ccc5c(n4)NC(=O)CO5)c(=O)o3)c2O)n1 [Example 61, 6-[2-hydroxy-3-({2-[5-oxo-4-(3-oxo-3,4-dihydro-2H-pyrido[3,2-b][1,4]oxazin-6-yl)-4,5-dihydro-[1,3,4]oxadiazol-2-yl]-ethylamino}-methyl)-phenyl]-pyridine-2-carbonitrile]
≤ 0.016 µg/mL | 0.125 µg/mL (≈ 0.249 µM) | 0.031 µg/mL (≈ 0.0617 µM) | ≤ 0.016 µg/mL | ≤ 0.016 µg/mL | N#Cc1cccc(-c2cccc(CNCC[C@H]3CN(c4ccc5c(n4)NC(=O)CS5)C(=O)O3)c2O)n1 [Example 94, 6-[2-hydroxy-3-({2-[(S)-2-oxo-3-(3-oxo-3,4-dihydro-2H-pyrido[3,2-b][1,4]thiazin-6-yl)-oxazolidin-5-yl]-ethylamino}-methyl)-phenyl]-pyridine-2-carbonitrile]
